Measured values reported in patent US6858591B2, “Antibiotic AA 896 analogs” (Wyeth Holdings Corporation, priority 2001, dated 2005).
Converted amounts (≈) assume the structure as drawn. Read-outs that look alike come from different tables or passages of the source. Values belong to the compound of their own block, whether it stands above or below them.

Columns and labels:
Experiment in all cases: In vitro MIC, broth dilution
Assay type in all cases: cell-based
[1] = tested on: E. coli GC 4559; details: Escherichia coli, GC4559; E. coli GC 4559; read-out: MIC
[2] = tested on: E. coli GC 4560; details: Escherichia coli, GC4560; E. coli GC 4560; read-out: MIC
[3] = tested on: E. coli GC 3226; details: Escherichia coli, GC3226; E. coli GC 3226; read-out: MIC
[4] = tested on: S. marcescens GC 4077; details: Serratia marcescens, GC4077; S. marcescens GC 4077; read-out: MIC
[5] = tested on: C. albicans GC 3066; details: Candida albicans, GC3066; C. albicans GC 3066; read-out: MIC
[6] = tested on: M. morganii GC 4531; details: Morganella morganii, GC4531; M. morganii GC 4531; read-out: MIC
[7] = tested on: K. pneumoniae GC 4534; details: Klebsiella pneumoniae, GC4534; K. pneumoniae GC 4534; read-out: MIC
[8] = tested on: E. cloacae GC 3783; details: Enterobacter cloacae, GC3783; E. cloacae GC 3783; read-out: MIC
[9] = tested on: P. aeruginosa GC 4532; details: Pseudomonas aeruginosa, GC4532; P. aeruginosa GC 4532; read-out: MIC
[10] = tested on: CNS GC 4537
Procedure, shortened: (§1)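 Susceptibility testing used the NCCLS broth dilution method. Antibiotic spanned 64-0.06 μg/ml against an inoculum of 5×10^5 CFU/ml in Mueller-Hinton II; after 18 hours at 35° C the lowest concentration without growth gave the MIC.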

[11] = tested on: CNS GC 4538
Procedure, shortened: as §1

[12] = tested on: CNS GC 4547
Procedure, shortened: as §1

[13] = tested on: E. faecalis GC 2242; details: Enterococcus faecalis, GC2242; E. faecalis GC 2242; read-out: MIC
Procedure, shortened: as §1

[14] = tested on: E. faecalis GC 4555; details: Enterococcus faecalis, GC4555; E. faecalis GC 4555; read-out: MIC
Procedure, shortened: as §1

[15] = tested on: E. faecalis GC 842; details: Enterococcus faecalis, GC842; E. faecalis GC 842; read-out: MIC
Procedure, shortened: as §1

[16] = tested on: S. aureus GC 1131; details: Staphylococcus aureus, GC1131; S. aureus GC 1131; read-out: MIC
Procedure, shortened: as §1

[17] = tested on: S. aureus GC 2216; details: Staphylococcus aureus, GC2216; S. aureus GC 2216; read-out: MIC
Procedure, shortened: as §1

[18] = tested on: S. aureus GC 4536; details: Staphylococcus aureus, GC4536; S. aureus GC 4536; read-out: MIC
Procedure, shortened: as §1

[19] = tested on: E. coli GC 2203; details: Escherichia coli, GC2203; E. coli GC 2203; read-out: MIC
[20] = tested on: P. aeruginosa GC 2214; details: Pseudomonas aeruginosa, GC2214; P. aeruginosa GC 2214; read-out: MIC

SMILES: COc1ccc(Cn2c(=O)ccn([C@@H]3OC([C@H](O)[C@H](NCCCNC(=O)[C@@H](N)Cc4ccccc4)C(=O)OC(C)(C)C)[C@@H](O[Si](C)(C)C(C)(C)C)[C@H]3O[Si](C)(C)C(C)(C)C)c2=O)cc1 (stereo partly drawn) [Example 13, tert-Butyl (2S,3R)-2-[(3-{[(2S)-2-amino-3-phenylpropanoyl]amino}propyl)amino]-3-[(3R,4R,5R)-3,4-bis{[tert-butyl(dimethyl)silyl]oxy}-5-(3-(4-methoxybenzyl)-2,4-dioxo-3,4-dihydro-1(2H)-pyrimidinyl)tetrahydro-2-furanyl]-3-hydroxypropanoate]
MIC [1]: > 128 µg/mL
MIC [2]: > 128 µg/mL
MIC [3]: > 128 µg/mL
MIC [4]: > 128 µg/mL
MIC [5]: > 128 µg/mL
MIC [6]: > 128 µg/mL
MIC [7]: > 128 µg/mL
MIC [8]: > 128 µg/mL
MIC [9]: > 128 µg/mL
MIC ([10]; CNS GC 4537, read-out: MIC): > 128 µg/mL
MIC ([11]; CNS GC 4538, read-out: MIC): > 128 µg/mL
MIC ([12]; CNS GC 4547, read-out: MIC): > 128 µg/mL
MIC [13]: 16 µg/mL (≈ 17.3 µM)
MIC [14]: > 128 µg/mL
MIC [15]: 128 µg/mL (≈ 138 µM)
MIC [16]: > 128 µg/mL
MIC [17]: > 128 µg/mL
MIC [18]: > 128 µg/mL
MIC [19]: > 128 µg/mL
MIC [20]: > 128 µg/mL

SMILES: CCOC(=O)C(NCCCNC(=O)[C@H](CC(C)C)NC(=O)[C@H](CCCNC(=N)N[N+](=O)O)NC(=O)N[C@H](C(=O)OCc1ccccc1)C(C)C)C(OC(C)=O)[C@H]1O[C@H](n2ccc(=O)[nH]c2=O)[C@H](OC(C)=O)[C@@H]1OC(C)=O (stereo partly drawn) [Example 41, 19-Benzyl 5-ethyl (4R,12S,15S,19S)-4-[(2R,3R,4R,5S)-3,4-bis(acetyloxy)-5-(2,4-dioxo-3,4-dihydro-1(2H)-pyrimidinyl)tetrahydro-2-furanyl]-15-(3-{[(2,2-dioxido-2lambda˜1˜-diazanyl)(imino)methyl]amino}propyl)-12-isobutyl-20-methyl-2,11,14,17-tetraoxo-3-oxa-6,10,13,16,18-pentaazahenicosane-5,19-dicarboxylate]
MIC [1]: > 128 µg/mL
MIC [2]: > 128 µg/mL
MIC [3]: > 128 µg/mL
MIC [4]: > 128 µg/mL
MIC [5]: 128 µg/mL
MIC [6]: > 128 µg/mL
MIC [7]: > 128 µg/mL
MIC [8]: > 128 µg/mL
MIC [9]: 128 µg/mL
MIC [10]: > 128 µg/mL
MIC [11]: > 128 µg/mL
MIC [12]: > 128 µg/mL
MIC [13]: 128 µg/mL
MIC [14]: > 128 µg/mL
MIC [15]: > 128 µg/mL
MIC [16]: > 128 µg/mL
MIC [17]: > 128 µg/mL
MIC [18]: > 128 µg/mL
MIC [19]: > 128 µg/mL
MIC [20]: 128 µg/mL

SMILES: CC(C)C[C@H](NC(=O)OCc1ccccc1)C(=O)NCCCN[C@H](C(=O)OC(C)(C)C)[C@@H](O)C1O[C@@H](n2ccc(=O)[nH]c2=O)[C@H](O[Si](C)(C)C(C)(C)C)[C@@H]1O[Si](C)(C)C(C)(C)C (stereo partly drawn) [Example 6, tert-Butyl (5S,12S)-12-[(R)-[(3R,4R,5R)-3,4-bis{[tert-butyl(dimethyl)silyl]oxy}-5-(2,4-dioxo-3,4-dihydro-1(2H)-pyrimidinyl)tetrahydro-2-furanyl](hydroxy)methyl]-5-isobutyl-3,6-dioxo-1-phenyl-2-oxa-4,7,11-triazatridecan-13-oate]
MIC [1]: > 128 µg/mL
MIC [2]: 128 µg/mL (≈ 141 µM)
MIC [3]: > 128 µg/mL
MIC [4]: > 128 µg/mL
MIC [5]: > 128 µg/mL
MIC [6]: 128 µg/mL (≈ 141 µM)
MIC [7]: > 128 µg/mL
MIC [8]: > 128 µg/mL
MIC [9]: 128 µg/mL (≈ 141 µM)
MIC ([10]; CNS GC 4537, read-out: MIC): > 128 µg/mL
MIC ([11]; CNS GC 4538, read-out: MIC): > 128 µg/mL
MIC ([12]; CNS GC 4547, read-out: MIC): > 128 µg/mL
MIC [13]: 64 µg/mL (≈ 70.6 µM)
MIC [14]: > 128 µg/mL
MIC [15]: > 128 µg/mL
MIC [16]: > 128 µg/mL
MIC [17]: > 128 µg/mL
MIC [18]: > 128 µg/mL
MIC [19]: > 128 µg/mL
MIC [20]: 128 µg/mL (≈ 141 µM)

SMILES: COc1ccc(Cn2c(=O)ccn([C@@H]3OC([C@H](O)[C@H](NCCCNC(=O)[C@@H](NC(=O)OCc4ccccc4)C(C)O)C(=O)O)[C@@H](O)C3O[Si](C)(C)C(C)(C)C)c2=O)cc1 (stereo in doubt) [Example 46, (5S,12S)-12-[(R)-[(3R,4R,5R)-4-{[tert-butyl(dimethyl)silyl]oxy}-3-hydroxy-5-(3-(4-methoxy-benzyl)-2,4-dioxo-3,4-dihydro-1(2H)-pyrimidinyl)tetrahydro-2-furanyl](hydroxy)methyl]-5-[(1S)-1-hydroxyethyl]-3,6-dioxo-1-phenyl-2-oxa-4,7,11-triazatridecan-13-oic acid]
MIC [1]: > 128 µg/mL
MIC [2]: 128 µg/mL (≈ 152 µM)
MIC [3]: > 128 µg/mL
MIC [4]: > 128 µg/mL
MIC [5]: 128 µg/mL (≈ 152 µM)
MIC [6]: 128 µg/mL (≈ 152 µM)
MIC [7]: > 128 µg/mL
MIC [8]: > 128 µg/mL
MIC [9]: 128 µg/mL (≈ 152 µM)
MIC ([10]; CNS GC 4537, read-out: MIC): > 128 µg/mL
MIC ([11]; CNS GC 4538, read-out: MIC): > 128 µg/mL
MIC ([12]; CNS GC 4547, read-out: MIC): > 128 µg/mL
MIC [13]: 128 µg/mL (≈ 152 µM)
MIC [14]: 128 µg/mL (≈ 152 µM)
MIC [15]: 128 µg/mL (≈ 152 µM)
MIC [16]: > 128 µg/mL
MIC [17]: > 128 µg/mL
MIC [18]: > 128 µg/mL
MIC [19]: > 128 µg/mL
MIC [20]: 128 µg/mL (≈ 152 µM)

SMILES: COc1ccc(Cn2c(=O)ccn([C@@H]3OC([C@H](O)[C@H](NCCCNC(=O)[C@H](CC(C)C)NC(=O)[C@H](CCCNC(=N)N[N+](=O)[O-])NC(=O)N[C@H](C(=O)OCc4ccccc4)C(C)C)C(=O)O)[C@@H](O)[C@H]3O)c2=O)cc1 (stereo partly drawn) [Example 49, (4S,8S,11S,18S)-18-[(R)-[(3S,4R,5R)-3,4-Dihydroxy-5-(3-(4-methoxybenzyl)-2,4-dioxo-3,4-dihydro-1(2H)-pyrimidinyl)tetrahydro-2-furanyl](hydroxy)methyl]-8-(3-{[(2,2-dioxido-2lambda˜1˜-diazanyl)(imino)methyl]amino}propyl)-11-isobutyl-4-isopropyl-3,6,9,12-tetraoxo-1-phenyl-2-oxa-5,7,10,13,17-pentaazanonadecan-19-oic acid]
MIC [1]: > 128 µg/mL
MIC [2]: > 128 µg/mL
MIC [3]: > 128 µg/mL
MIC [4]: > 128 µg/mL
MIC [5]: 128 µg/mL (≈ 123 µM)
MIC [6]: 128 µg/mL (≈ 123 µM)
MIC [7]: > 128 µg/mL
MIC [8]: > 128 µg/mL
MIC [9]: 128 µg/mL (≈ 123 µM)
MIC [10]: > 128 µg/mL
MIC [11]: > 128 µg/mL
MIC [12]: > 128 µg/mL
MIC [13]: 128 µg/mL (≈ 123 µM)
MIC [14]: > 128 µg/mL
MIC [15]: 128 µg/mL (≈ 123 µM)
MIC [16]: > 128 µg/mL
MIC [17]: > 128 µg/mL
MIC [18]: > 128 µg/mL
MIC [19]: > 128 µg/mL
MIC [20]: 128 µg/mL (≈ 123 µM)

MIC [1]: > 128 µg/mL
MIC [2]: > 128 µg/mL
MIC [3]: > 128 µg/mL
MIC [4]: > 128 µg/mL
MIC [5]: > 128 µg/mL
MIC [6]: > 128 µg/mL
MIC [7]: > 128 µg/mL
MIC [8]: > 128 µg/mL
MIC [9]: > 128 µg/mL
MIC ([10]; CNS GC 4537, read-out: MIC): > 128 µg/mL
MIC ([11]; CNS GC 4538, read-out: MIC): > 128 µg/mL
MIC ([12]; CNS GC 4547, read-out: MIC): > 128 µg/mL
MIC [13]: > 128 µg/mL
MIC [14]: > 128 µg/mL
MIC [15]: > 128 µg/mL
MIC [16]: > 128 µg/mL
MIC [17]: > 128 µg/mL
MIC [18]: > 128 µg/mL
MIC [19]: > 128 µg/mL
MIC [20]: > 128 µg/mL
SMILES: CCOC(=O)C(NCCCNC(=O)[C@@H](N)[C@H](C)O)[C@@H](O)[C@H]1O[C@H](n2ccc(=O)[nH]c2=O)[C@H](OC(C)=O)[C@@H]1OC(C)=O (stereo partly drawn) [Example 32, Ethyl (3R)-2-[(3-{[(2S,3S)-2-amino-3-hydroxybutanoyl]amino}propyl)amino]-3-[(2R,3R,4R,5S)-3,4-bis(acetyloxy)-5-(2,4-dioxo-3,4-dihydro-1(2H)-pyrimidinyl)tetrahydro-2-furanyl]-3-hydroxypropanoate]
